This note sets out measurements from paper PMC7565988, “Insight into the Anticancer Activity of Copper(II) 5-Methylenetrimethylammonium-Thiosemicarbazonates and Their Interaction with Organic Cation Transporters” (Biomolecules, 2020).

Data set [1] in a line: Proton dissociation constants (pKa) of proligands by UV/Vis spectrophotometric titration. The class given is physicochemical. To be noted: for % HL at pH 7.4: fraction of proligand in neutral zwitterionic HL form at pH 7.4, computed with pKa; for pKa: proligand, phenolic OH, I = 0.1 M (KCl), t = 25 °C, water, read-out: pKa (H2L+). The protocol: An Agilent Carry 8454 diode array spectrophotometer was used to record the UV/Vis spectra in the interval 200–800 nm. The path length was 1 cm. Proton dissociation constants (pKa) of the TSC ligands, the overall stability constants of the copper(II) monoligand complexes (logβ) and the individual spectra of the species in the various protonation states and stoichiometry were calculated by the computer program PSEQUAD [44]. Spectrophotometric titrations were performed on samples containing the proligands at 50 μM concentration by a KOH solution in the presence of 0.1 M KCl at 25.0 ± 0.1 °C in the pH range from 2 to 11.5, and the metal-to-ligand ratio was 1:0, 1:1 and 1:2. An Orion 710A pH-meter equipped with a Metrohm combined electrode (type 6.0234.100) and a Metrohm 665 Dosimat burette were used for the titrations. […] The average water ionisation constant (pKw) is 13.76 ± 0.05 in water. Argon was also passed over the solutions during the titrations. Measurements were also carried out in the range of ca. 1.0–2.0 by preparing individual samples in which KCl was partially or completely replaced by HCl and pH values (between 1 and 2) were calculated from the strong acid content.

Data set [2] in a line: Distribution coefficient (D7.4), shake-flask method, n-octanol/buffered aqueous solution pH 7.40. To be noted: n-octanol/PBS pH 7.4, 25 °C, read-out: logD7.4 (proligand). It is filed as physicochemical. Here is the method: Distribution coefficients (D7.4) values were determined by the traditional shake-flask method in n-octanol/buffered aqueous solution at pH 7.40 (20 mM phosphate buffer saline (PBS)) at 25.0 ± 0.2 °C as described previously.

In data set [3] the test system is Colo 320 multidrug resistant colonic adenocarcinoma cells (overexpressing ABCB1 (MDR1)-LRP). The data set can be described thus: MTT cytotoxicity (24 h) / antiproliferation (72 h) assay. To be noted: Homo sapiens, read-out: Colo320 IC50. The class given is cell-based. Here is the method: Human doxorubicin-sensitive Colo 205 (ATCC-CCL-222) and multidrug resistant Colo 320 (overexpressing ABCB1 (MDR1)-LRP (ATCC-CCL-220.1)) colonic adenocarcinoma cell lines were purchased from LGC Promochem, Teddington, UK. The cells were cultured in RPMI 1640 medium supplemented with 10% heat-inactivated fetal bovine serum, 2 mM L-glutamine, 1 mM Na-pyruvate and 100 mM Hepes. The cell lines were incubated at 37 °C, in a 5% CO2, 95% air atmosphere. The semi-adherent human colon cancer cells were detached with Trypsin-Versene (EDTA) solution for 5 min at 37 °C.
(§1) In the study non-cancerous human embryonic lung fibroblast MRC-5, human colonic adenocarcinoma cell line (doxorubicin-sensitive Colo 205, multidrug resistant Colo 320) and neuroblastoma cell line SH-SY5Y were used to determine the effect of compounds on cell growth. The effects of increasing concentrations of compounds on cell growth were tested in 96-well flat-bottomed microtiter plates. The compounds were diluted in a volume of 100 μL of medium.
In case of the colonic adenocarcinoma cells, the two-fold serial dilutions of compounds were prepared in 100 μL of RPMI 1640, horizontally. The semi-adherent colonic adenocarcinoma cells were treated with Trypsin–Versene (EDTA) solution. The cells were adjusted to a density of 2 × 10^4 cells in 100 μL of RPMI 1640 medium, and were added to each well, with the exception of the medium control wells. The final volume of the wells containing compounds and cells was 200 μL.
(§2) The culture plates were incubated at 37 °C for 24 h; at the end of the incubation period, 20 μL of MTT (thiazolyl blue tetrazolium bromide, Sigma) solution (from a stock solution of 5 mg/mL) were added to each well. After incubation at 37 °C for 4 h, 100 μL of sodium dodecyl sulfate (SDS) (Sigma) solution (10% in 0.01 M HCI) were added to each well and the plates were further incubated at 37 °C overnight. Cell growth was determined by measuring the optical density (OD) at 540/630 nm with Multiscan EX ELISA reader (Thermo Labsystems, Cheshire, WA, USA). […] Curves were fitted by GraphPad Prism software using the sigmoidal dose-response model (comparing variable and fixed slopes).
(§3) The method is similar to the one described in the assay for cytotoxic effect. […] The culture plates were incubated at 37 °C for 72 h and after the incubation time, the plates were stained with MTT according to the previous experimental protocol described for the cytotoxicity assay.

Test in data set [4]: as above
The class given is cell-based. The settings on record: human, MRC-5 embryonal lung fibroblast cells (non-cancerous); for IC50 at 24 h: 24 h exposure; for IC50 at 72 h: 72 h exposure. The protocol:
MRC-5 human embryonal lung fibroblast cell line (ATCC CCL-171) was purchased from LGC Promochem, Teddington, UK. The cell line was cultured in Eagle’s Minimal Essential Medium (EMEM, containing 4.5 g/L glucose) supplemented with a non-essential amino acid mixture, a selection of vitamins and 10% heat-inactivated foetal bovine serum. The cell line was incubated at 37 °C, in a 5% CO2, 95% air atmosphere.
as §1
The adherent human embryonal lung fibroblast and SH-SY5Y neuroblastoma cells were cultured in 96-well flat-bottomed microtiter plates, using EMEM supplemented with 10% heat-inactivated foetal bovine serum. The density of the cells was adjusted to 2 × 10^4 cells in 100 μL per well, the cells were seeded for 24 h at 37 °C, 5% CO2, then the medium was removed from the plates containing the cells, and the dilutions of compounds previously made in a separate plate were added to the cells in 200 μL.
as §2, §3

Data set [5] can be described thus: ABTS decolourisation assay, Trolox equivalent antioxidant capacity. To be noted: water/DMSO (20% v/v), absorbance at 735 nm. Here is the method:
The generation of paramagnetic intermediates was monitored by cw-EPR spectroscopy using the EMXplus spectrometer and spin trapping technique. Deionised water was used for preparation of aqueous solutions. The spin trapping agent 5,5-dimethyl-1-pyrroline N-oxide (DMPO; Sigma-Aldrich) was distilled prior to the application. The EPR spectra were measured with following experimental parameters: X-band, room temperature, microwave frequency, 9.448 GHz; 100 kHz field modulation amplitude, 2 G; time constant, 10 ms; scan time, 21 s (three scans). Glutathione from Sigma-Aldrich; 6-hydroxy-2,5,7,8-tetramethylchroman-2-carboxylic acid (Trolox, 97%, Sigma-Aldrich); K2S2O8 (p.a. purity, Merck); 2,2′-azinobis [3-ethylbenzothiazoline-6-sulfonic acid] (ABTS; purum, >99%; Fluka) were used as received. Deionised high-purity grade H2O, with conductivity of […], was produced by using the TKA H2O purification system (Water Purification Systems GmbH, D-Niederelbert). For the ABTS decolourisation assay, the radical cations were pre-formed by the reaction of an aqueous solution of K2S2O8 (3.30 mg) in H2O (5 mL) with ABTS (17.2 mg). The resulting bluish-green radical cation (ABTS^•+) solution was stored overnight in the dark. […] The optical spectra were recorded from 1 to 40 min in 1 cm quartz UV cuvette after mixing the sample water/DMSO solution with ABTS^•+ in mixed solvent water/DMSO (20% (v/v)).

Like-named read-outs stand apart in the source and are kept apart here. Bounds are passed on as bounds.

As to `CCNC(=S)N/N=C/c1cc(C[N+](C)(C)C)ccc1O` [[H2L^Et]Cl], in data set [1], the “% HL at pH 7.4” value was found to be 55% and the pKa worked out at 7.31 ± 0.01. Also, the logD in data set [2] stood at 0.06 ± 0.04. For the same molecule, the IC50 in data set [3] (24 h exposure) was 63.8 ± 3.92 µM. In addition, the IC50 in data set [3] (72 h exposure) worked out at 53.3 ± 2.44 µM. In addition, in data set [4], the IC50 at 24 h is over 100 µM and the IC50 at 72 h is over 100 µM.
Consider `C[N+](C)(C)Cc1ccc(O)c(/C=N/NC(N)=S)c1` [[H2L^H]Cl], for which, in data set [1], the “% HL at pH 7.4” value turned out to be 47% and the pKa was determined as 7.46 ± 0.01. The logD in data set [2] was -0.84 ± 0.03. The “Trolox equivalent antioxidant capacity (TEAC)” value in data set [5] was 0.74. The IC50 in data set [3] (24 h exposure) is over 100 µM. Moreover, the IC50 in data set [3] (72 h exposure) amounted to 88.8 ± 5.32 µM. Further, in data set [4], the IC50 at 24 h was over 100 µM and the IC50 at 72 h was over 100 µM.
Turning to `CNC(=S)N/N=C/c1cc(C[N+](C)(C)C)ccc1O` [[H2L^Me]Cl], in data set [1], the “% HL at pH 7.4” value is recorded as 42% and the pKa amounted to 7.54 ± 0.01. Besides, the logD in data set [2] is -0.39 ± 0.01. In data set [3] (24 h exposure), the IC50 is over 100 µM. In addition, the IC50 in data set [3] (72 h exposure) worked out at 74.4 ± 3.85 µM. For the same molecule, in data set [4], the IC50 at 24 h is over 100 µM and the IC50 at 72 h is over 100 µM.
For the molecule `C[N+](C)(C)Cc1ccc(O)c(/C=N/NC(=S)Nc2ccccc2)c1` [[H2L^Ph]Cl], in data set [1], the “% HL at pH 7.4” value is 70% and the pKa was 7.03 ± 0.01. Further, in data set [2], the logD was found to be 0.68 ± 0.04. In addition, in data set [3] (24 h exposure), the IC50 was over 100 µM. Further, the IC50 in data set [3] (72 h exposure) stood at 95.8 ± 1.58 µM. In data set [4], this molecule returned an IC50 at 24 h of over 100 µM and an IC50 at 72 h of over 100 µM.

In general, pKa refers to the negative logarithm of the acid dissociation constant. By IC50 is commonly meant the concentration at which inhibition is half-maximal.
